Paper PMC5882628, “Development of a Cell-Based Assay to Assess Binding of the proNGF Prodomain to Sortilin” (Cellular and Molecular Neurobiology, 2017)
Blank lines part the entries; values can stand above or below the molecule they belong to.

Legend:
[1] = target: internalization-mutant sortilin (human) (UniProt Q99523); assay: immunostaining of cells or tissue; HEK293 cells transiently transfected with sortilin (or empty vector) in 96-well dishes, treated 45 min with 50 nM GSTpro or proNGF, washed, fixed, permeabilised (0.1% Triton X-100), stained for sortilin and for GST or the pro domain; automated array-scanner analysis of sortilin-positive and sortilin-negative cells
proNGF (Homo sapiens) = proNGF (Homo sapiens) (UniProt P01138); details: cited from earlier work
wt sortilin = assay: Competition of proNGF against GSTpro binding to wt sortilin-transfected HEK cells (stained for GST); assay type: cell-based, human; details: 5, 10, or 25 nM GSTpro concomitantly with 50 nM proNGF; Fig. 3v
Description: HEK 293 cells were grown in DMEM with 10% fetal bovine serum. They were transfected with plasmids either encoding wild type sortilin, or sortilin with a mutation that renders it endocytosis deficient, or an empty control vector according to manufacturer’s instructions using 20 µg lipofectamine (Thermo Fischer Scientific) with 8 µg DNA on […] per 6 cm, poly-lysine coated dish. The cells were initially plated into 24-well dishes after transfection. That intermediate step rendered more uniform cell numbers in the 96-well dishes that were used to run the actual assay. […]
A-T Immunohistochemistry on HEK 293 cells using Hoechst staining (nuclei); anti-sortilin staining; or staining directed against the pro domain of proNGF (proNGF/GSTpro); or composite image showing all staining concomitantly as indicated above the panels. a–d Cells transfected with an empty expression vector and treated with GSTpro. e–h Cells transfected with a sortilin expression construct, but not treated with GSTpro. i–l Cells transfected with sortilin and GSTpro treated. m–p, Cells transfected with sortilin and proNGF purified from recombinant E.coli. q–t Cells transfected with sortilin and proNGF purified from a eukaryotic expression system. […] Black columns: Total fluorescence intensity of “sortilin-negative” cells. Red columns: Total fluorescence intensity of sortilin positive cells. […]

sortilin [2] = details: scintillation proximity assay; ref Andersen et al. [2014]; cited from earlier work
Text: The role of sortilin signaling in several pathologic processes makes it a target for drug development. […] In addition to this assay, other in vitro assays including the binding of ligands to membrane fractions derived from sortilin-expressing cells (Carvelli et al. [2017]), surface plasmon resonance, and l ...

sortilin [3] = target: T1, sortilin (Homo sapiens, UniProt Q99523); assay: Cell-based assay of GSTpro (NGF prodomain) binding/uptake, wt sortilin-transfected HEK293 cells, sortilin/GST double stain, high content imaging, with detergent; details: Fig. 6a; with detergent; sortilin-positive cells; preincubation 1 h, GSTpro 45 min
T1 construct: They were transfected with plasmids either encoding wild type sortilin, or sortilin with a mutation that renders it endocytosis deficient; expressed in transfected cells; host or cells: HEK 293 cells, transient transfection (lipofectamine)
T1 sequence (Q99523 78-831): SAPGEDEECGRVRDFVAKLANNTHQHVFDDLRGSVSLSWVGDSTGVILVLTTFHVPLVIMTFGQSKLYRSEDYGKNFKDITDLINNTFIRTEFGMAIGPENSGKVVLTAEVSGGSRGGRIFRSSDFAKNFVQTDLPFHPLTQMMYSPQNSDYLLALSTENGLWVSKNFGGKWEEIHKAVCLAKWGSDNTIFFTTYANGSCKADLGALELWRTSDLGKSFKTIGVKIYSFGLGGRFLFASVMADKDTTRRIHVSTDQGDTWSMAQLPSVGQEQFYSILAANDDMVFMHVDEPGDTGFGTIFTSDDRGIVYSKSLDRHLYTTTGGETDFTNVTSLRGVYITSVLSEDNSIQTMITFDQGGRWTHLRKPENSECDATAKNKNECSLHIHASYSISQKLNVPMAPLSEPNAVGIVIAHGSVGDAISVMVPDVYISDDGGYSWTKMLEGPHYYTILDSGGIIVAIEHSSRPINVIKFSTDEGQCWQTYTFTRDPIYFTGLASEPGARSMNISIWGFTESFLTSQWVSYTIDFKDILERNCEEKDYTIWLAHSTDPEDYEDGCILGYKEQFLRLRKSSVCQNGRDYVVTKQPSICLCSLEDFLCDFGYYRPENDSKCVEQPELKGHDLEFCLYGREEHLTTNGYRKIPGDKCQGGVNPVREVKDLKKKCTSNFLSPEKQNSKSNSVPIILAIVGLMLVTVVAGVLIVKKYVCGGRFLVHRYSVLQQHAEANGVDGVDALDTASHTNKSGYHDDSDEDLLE
Description: HEK 293 cells were grown in DMEM with 10% fetal bovine serum. They were transfected with plasmids either encoding wild type sortilin, or sortilin with a mutation that renders it endocytosis deficient, or an empty control vector according to manufacturer’s instructions using 20 µg lipofectamine (Thermo Fischer Scientific) with 8 µg DNA on […] per 6 cm, poly-lysine coated dish. The cells were initially plated into 24-well dishes after transfection. That intermediate step rendered more uniform cell numbers in the 96-well dishes that were used to run the actual assay. 24 h later, cells were split into black opaque-walled, clear-bottom 96 well dishes at 42000 cells in 80 µl medium/well. […] 1 h after that treatment, the medium was replaced with 80 µl medium containing the same antibody, compounds or peptides included in the preincubation medium, plus recombinant GSTpro or proNGF (either purified in-house from recombinant HEK cells or derived from an E.coli expression system at either 0 nM (negative control), or 50 nM, or, in a few instances at 5 or 10 nM. The respective concentrations are indicated in the figures 45 min after adding GSTpro or proNGF, cells were washed twice with prewarmed PBS and fixed in 4% PFA for 20 min at approximately 20 °C.
The fixed cells were washed with PBS for 15 min, followed by two 15 min washes with PBS with 0.1% Triton X-100. […] Wells to be evaluated for blocking of the sortilin-GSTpro interaction by antibodies were only stained with an antibody against the pro domain of proNGF in 10% FBS at a dilution of 1:1500 (Millipore (N-term) clone EPI318Y, Rabbit Monoclonal Antibody Catalog Number: #04-1142). […]
The following day, wells were washed 3 × 15 min with PBS/0.1% Triton X-100. […] Cellular fluorescence was quantified using an array scanner and the “Neuronal Profiler” Bioapplication (Thermo Fisher Scientific) as described below.
Sortilin-GSTpro interaction was also assessed using HEK cell derived cell lines stably expressing sortilin. […]
Images from 96 well dishes were automatically recorded with a Cellomics ArrayScan VTI HCS Reader (Thermo Scientific) using a 10× microscope objective and the build-in standard autofocus method. Fifteen 1024 × 1024 images in 4 channels (Channel 1 and 2: Filter XF5–Hoechst, to detect nuclei and all cells; Channel 3: XF53-Texas Red to detect, e.g., sortilin-positive cells; Channel 4: Filter XF93 – FITC, to detect cells positive, e.g., for the proNGF pro domain) were recorded per 96 well.
The images were analyzed with the Cellomics assay algorithm NeuronalProfiling.V3.5.

proNGF (Homo sapiens), sequence (P01138 122-241): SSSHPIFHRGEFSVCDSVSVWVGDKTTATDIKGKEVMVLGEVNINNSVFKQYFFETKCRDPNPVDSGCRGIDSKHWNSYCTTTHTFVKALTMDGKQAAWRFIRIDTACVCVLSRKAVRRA

GSTpro signal compared to wt sortilin transfected cells [1]: 60 % higher
Molecule: GSTpro (GST C-terminally linked to the pro domain from NGF) (from UniProt P01138 19-121) (domain or fragment)

Molecule: sortilin (from UniProt Q99523)
Kd (proNGF (Homo sapiens)): 5 nM

Molecule: euk. proNGF: proNGF isolated from a mammalian expression system
competition against GSTpro binding to sortilin (in words) (wt sortilin): compete against GSTpro binding to wt sortilin

Molecule: proNGF isolated from recombinant E. coli: Recombinant human proNGF expressed and purified from E.coli, purchased from Alamone labs
competition against GSTpro binding to sortilin (in words) (wt sortilin): compete against GSTpro binding to wt sortilin

Molecule: Cc1cc(=O)oc2c(CN[C@@H](CC(C)C)C(=O)O)c(O)ccc12 [AF40431]
blocking of sortilin-neurotensin interaction (in words) (sortilin [2]): blocked sortilin-neurotensin interaction

reduction of GSTpro signal by neurotensin-derived and control peptides (in words) (sortilin [3]): to a lesser extent also reduced
Molecule: PYIL [reference compound]
